These results are taken from US20040235920A1, “Novel use of substituted aminomethyl chromans for the treatment of movement disorders and of adverse effects induced by drugs administered to treat extrapyramidal movement disorders” (priority 2001, published 2004).

For assay [1], the system named is cataleptic rat. In words: Reversal of catalepsy in rats (oral ED50). Type of assay: in vivo. The note with it: rats; for ED50: Rattus norvegicus, read-out: oral ED50 value (calculated dose to reverse catalepsy by 50%); for ED50 / oral ED50 value (calculated dose to reverse catalepsy by 50%): oral. The protocol:
Extrapyramidal motor side effects in e.g. rodents are measured by the ability of a drug to induce catalepsy. Catalepsy is defined as a state where an animal continues to remain in an unnormal (nonphysiological ‘uncomfortable’) posture for a long time (e.g.: M. E. Stanley and S. D. Glick, Neuropharmacology, 1996; 15: 393-394; C. J. E. Niemegeers and P. Janssen, Life Sci., 1979, […]). For example, if a hindpaw of a rat is placed on an elevated level, e.g. a platform elevated 3 cm above ground level, a normal rat immediately withdraws the hindpaw from the platform to the ground level. A cataleptic rat remains in this unnatural posture even for minutes.

Assay [2] concerns schizophrenic inpatients on long-term antipsychotic treatment. In words: Cross-over add-on study in tardive dyskinesia (AIMS). Type of assay: in vivo, human. The note with it: up to 20 mg t.i.d., vs placebo period, typical study. The text has this:
Tardive dyskinesia is a common adverse effect of long-term treatment with neuroleptics. A typical study to investigate the efficacy of the compounds according to the invention in tardive dyskinesia is described in the following. 32 schizophrenic (DSM-III-R) inpatients aged 25-60 years on long-term stable antipsychotic treatment (duration of at least 5 years) entered the study. (−)-(R)-2-{4-[[3,4-dihydro-2H-benzopyran-2-yl)-methyl]amino]butyl}-1,2-benzoisothiazol-3-(2H)-on-1,1-dioxide monohydrochloride or placebo is administered as “add on” to the antipsychotic treatment, which is kept constant during the whole study. The dose of blinded medication is titrated over a period of 3 weeks in a range from I to 20 mg t.i.d. Then the medication is maintained under double-blind conditions for 2 weeks. After a 2-week wash-out period, the test drugs are crossed over. Assessments of tardive dyskinesia by means of the Abnormal Involuntary Movement Scale (AIMS, see above) and of Parkinsonian extrapyramidal side effects (UPDRS, see above) are made pretreatment and posttreatment.

Assay [3] deals with patients with cervical dystonia (spasmodic torticollis). As to the kind of experiment: Double-blind placebo-controlled study in cervical dystonia (TWSTRS). Type of assay: in vivo, human. The settings on record: 2.5 mg to 20 mg b.i.d.
Assay [4] deals with MSA patients. As to the kind of experiment: Add-on study in MSA patients (UPDRS). Type of assay: in vivo, human. The settings on record: 1 to 20 mg t.i.d., typical study. The procedure: The study design is similar to that described above for Parkinson's disease. (−)-(R)-2-{4-[[3,4-dihydro-2H-benzopyran-2-yl)-methyl]amino]butyl}-1,2-benzoisothiazol-3-(2H)-on-1,1-dioxide monohydrochloride or placebo is titrated as “add on” to the conventional treatment (dose range 1 to 20 mg t.i.d.). After a double-bllind dose-finding phase of 3 weeks during which the individual dose is identified for each patient on the basis of tolerability and efficacy, the dose is maintained unchanged for 3 additional weeks. Before the start of titration and at the end of the treatment period a complete UPDRS assessment is performed in each patient (primary outcome measure).

Assay [5] relates to patients with advanced idiopathic Parkinson's disease complicated by “peak-dose” dyskinesia. As to the kind of experiment: Double-blind add-on study in advanced idiopathic Parkinson's disease with peak-dose dyskinesia (diary card). The settings on record: 2.5 to 10 mg b.i.d., typical study. Type of assay: in vivo, human. From the text: A typical study to investigate the efficacy of the compounds according to the invention for adverse effects in Parkinson's disease is described in the following. 40 patients of either sex with advanced idiopathic Parkinson's disease complicated by “peak-dose” dyskinesia participate in a double-blind study. The main inclusion criteria are Hoehn & Yahr stage≧2.5 (lit.: Hoehn H. M. et al, Neurology 1967; 17: 427-442), aged 40-75 years, symptom duration of at least 5 years, and a l-dopa treatment duration of at least 3 years. (−)-(R)-2-{4-[[3,4-dihydro-2H-benzopyran-2-yl)-methyl]amino]butyl}-1,2-benzoisothiazol-3-(2H)-on-1,1-dioxide monohydrochloride or placebo is administered as “add on” to the conventional Parkinson treatment, which is maintained unchanged during the whole study. The dose of blinded medication is titrated over a period of 3 weeks in a range from 2.5 to 10 mg b.i.d. Then the medication is kept constant for 3 weeks. Before the start of titration and at the end of the treatment period the patients fill a diary card in 30 min. inervalls for 48 hours. The diary card differentiates 5 different states: (1) “on” without dyskinesia, (2) “on” with troublesome dyskinesia, (3) “on” with non-troublesome dyskinesia, (4) “off” time, and (5) time asleep (Hauser RA et al., Clin. Neuropharmacol., 2000, 23, 75-81). The primary outcome variable of the protocol is the change in “on” time with troublesome dyskinesia. […] The other parameters are not changed.

For assay [6], the system named is advanced Parkinson patients. The note with it: cited from earlier work.

Molecules are shown by their SMILES.

A word on the ED50: it is the dose that gives a 50% effect, or the effect in half of the subjects. As to `O=C1c2ccccc2S(=O)(=O)N1CCCCN1CCN(c2ncccn2)CC1` [ipsapirone], the ED50 in assay [1] is 23 mg/kg.
Take `O=C1[C@@H]2[C@H]3CC[C@H](C3)[C@@H]2C(=O)N1CCCCN1CCN(c2ncccn2)CC1` [tandosirone]: the “oral ED50 value (calculated dose to reverse catalepsy by 50%)” value in assay [1] was 60 mg/kg.
Regarding `CC1(C)CC(=O)N(CCCCN2CCN(c3ncccn3)CC2)C(=O)C1` [gepirone], in assay [1], the ED50 was 16 mg/kg.
For `Cl.O=C1c2ccccc2S(=O)(=O)N1CCCCNC[C@H]1CCc2ccccc2O1` [(−)-(R)-2-{4-[[3,4-dihydro-2H-benzopyran-2-yl)-methyl]amino]butyl}-1,2-benzoisothiazol-3-(2H)-on-1,1-dioxide monohydrochloride], in assay [1], the “oral ED50 value (calculated dose to reverse catalepsy by 50%)” value is reported as 0,6 mg/kg. Besides, in assay [1] (oral ED50 vs ipsapirone, buspirone, gepirone, tandosirone), the “potency in reversing catalepsy compared to other 5-HT1A agonists” value is reported as 30-100 times. Besides, the AIMS scores entry in assay [2] is listed as “significantly lower than during placebo period”. Also, the TWSTRS scores entry in assay [3] is on record as “significant improvement”. Also, the “UPDRS (Parkinson symptoms)” value in assay [4] is “significant clinical improvement of Parkinson symptoms”. Also, in assay [5], the other diary parameters entry is listed as “not changed”, the ““on” time with troublesome dyskinesia” value is “significant reduction” and the ““on” time without dyskinesia” value is on record as “significantly increase”.
`O=C1CC2(CCCC2)CC(=O)N1CCCCN1CCN(c2ncccn2)CC1` [buspirone]: the anti-dyskinetic properties result in assay [6] is listed as “moderate anti-dyskinetic properties”. The ED50 in assay [1] is 30 mg/kg.
